The conditions of data set [1]: 60 mg QD NHL cohort, n = 1/18.
Data set [2] concerns gene expression (Hallmark gene sets). Description: RNA-seq differential expression and GSEA in bone marrow aspirates. In kind it is in vivo, human.

For `CCNC(=O)C[C@@H]1N=C(c2ccc(Cl)cc2)c2cc(OC)ccc2-n2c(C)nnc21` [molibresib], the “DLT: thrombocytopenia” value in data set [1] was 6%. Moreover, the “share of differentially expressed genes downregulated (289/398)” value in data set [2] (across all 13 patients) is reported as 72.6%. Also, in data set [2] (in vivo), the “differentially expressed genes shared between NRs and responders” value turned out to be 61 genes. The “genes with significant differential expression” value in data set [2] (non-responders (NR)) was 884 genes; in data set [2] (responders (CR + PR)), 107 genes.
